Laboratory results published in PubChem BioAssay (NCI).
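Tested at 5 concentrations; 48 h exposure; 96-well plates; endpoints linearly interpolated, else capped at highest concentration. TGI: total growth inhibition.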

These molecules were tested on NCI-H226 lung (assay: DTP human tumour cell line panel, 48 h).
For `NC(=O)C1CCCNC1` (configuration not stated), the TGI was > 100 µM.

These molecules were tested on NCI-H23 lung (assay: DTP human tumour cell line panel, 48 h).
`C#CC1(O)C(COP(=O)(O)OC(COCCCCCCCCCCCCCCCCCC)COP(=O)(O)OCC2OC(n3cc(C)c(=O)[nH]c3=O)CC2N=[N+]=[N-])OC(n2ccc(N)nc2=O)C1O` (configuration not stated) showed a TGI of 23.1 µM.
`CCOc1ccccc1/C=C(/C#N)C(N)=O` was tested, and the TGI was > 100 µM.
In the case of `COc1cccc(-c2nnc3c(-c4ccccc4)nc4ccccc4n23)c1`, the TGI is reported as > 100 µM.
With `c1ccc(COC2NCCN2Cc2ccccc2)cc1` (configuration not stated) the TGI was > 100 µM.
`NC(=O)C1CCCNC1` (configuration not stated) was tested, and the TGI was > 100 µM.

What follows are molecules tested on NCI-H460 lung (assay: DTP human tumour cell line panel, 48 h).
`C#CC1(O)C(COP(=O)(O)OC(COCCCCCCCCCCCCCCCCCC)COP(=O)(O)OCC2OC(n3cc(C)c(=O)[nH]c3=O)CC2N=[N+]=[N-])OC(n2ccc(N)nc2=O)C1O` (configuration not stated) showed a TGI of 17.6 µM.
For `CCOc1ccccc1/C=C(/C#N)C(N)=O`, the TGI was > 100 µM.
For `COc1cccc(-c2nnc3c(-c4ccccc4)nc4ccccc4n23)c1`, the TGI was 98.7 µM.
With `c1ccc(COC2NCCN2Cc2ccccc2)cc1` (configuration not stated) the TGI was > 100 µM.
With `NC(=O)C1CCCNC1` (configuration not stated) the TGI was > 100 µM.

What follows are molecules tested on NCI-H522 lung (assay: DTP human tumour cell line panel, 48 h).
For `C#CC1(O)C(COP(=O)(O)OC(COCCCCCCCCCCCCCCCCCC)COP(=O)(O)OCC2OC(n3cc(C)c(=O)[nH]c3=O)CC2N=[N+]=[N-])OC(n2ccc(N)nc2=O)C1O` (configuration not stated), the TGI was 1.33 µM.
For `CCOc1ccccc1/C=C(/C#N)C(N)=O`, the TGI was > 100 µM.
For `COc1cccc(-c2nnc3c(-c4ccccc4)nc4ccccc4n23)c1`, the TGI was 22.7 µM.
In the case of `c1ccc(COC2NCCN2Cc2ccccc2)cc1` (configuration not stated), the TGI is reported as > 100 µM.
`NC(=O)C1CCCNC1` (configuration not stated) was tested, and the TGI was > 100 µM.

What follows are molecules tested on NCI/ADR-RES ovarian (assay: DTP human tumour cell line panel, 48 h).
In the case of `C#CC1(O)C(COP(=O)(O)OC(COCCCCCCCCCCCCCCCCCC)COP(=O)(O)OCC2OC(n3cc(C)c(=O)[nH]c3=O)CC2N=[N+]=[N-])OC(n2ccc(N)nc2=O)C1O` (configuration not stated), the TGI is reported as 16.6 µM.
In the case of `CCOc1ccccc1/C=C(/C#N)C(N)=O`, the TGI is reported as > 100 µM.
In the case of `COc1cccc(-c2nnc3c(-c4ccccc4)nc4ccccc4n23)c1`, the TGI is reported as > 100 µM.
With `c1ccc(COC2NCCN2Cc2ccccc2)cc1` (configuration not stated) the TGI was > 100 µM.
`NC(=O)C1CCCNC1` (configuration not stated) was tested, and the TGI was > 100 µM.

The molecules below were run on OVCAR-3 ovarian (assay: DTP human tumour cell line panel, 48 h).
In the case of `C#CC1(O)C(COP(=O)(O)OC(COCCCCCCCCCCCCCCCCCC)COP(=O)(O)OCC2OC(n3cc(C)c(=O)[nH]c3=O)CC2N=[N+]=[N-])OC(n2ccc(N)nc2=O)C1O` (configuration not stated), the TGI is reported as 28.7 µM.
With `CCOc1ccccc1/C=C(/C#N)C(N)=O` the TGI was > 100 µM.
`COc1cccc(-c2nnc3c(-c4ccccc4)nc4ccccc4n23)c1` was tested, and the TGI was > 100 µM.
For `c1ccc(COC2NCCN2Cc2ccccc2)cc1` (configuration not stated), the TGI was > 100 µM.
With `NC(=O)C1CCCNC1` (configuration not stated) the TGI was > 100 µM.

These molecules were tested on OVCAR-4 ovarian (assay: DTP human tumour cell line panel, 48 h).
`C#CC1(O)C(COP(=O)(O)OC(COCCCCCCCCCCCCCCCCCC)COP(=O)(O)OCC2OC(n3cc(C)c(=O)[nH]c3=O)CC2N=[N+]=[N-])OC(n2ccc(N)nc2=O)C1O` (configuration not stated) was tested, and the TGI was 30.9 µM.
`CCOc1ccccc1/C=C(/C#N)C(N)=O` was tested, and the TGI was > 100 µM.
For `COc1cccc(-c2nnc3c(-c4ccccc4)nc4ccccc4n23)c1`, the TGI was > 100 µM.
With `c1ccc(COC2NCCN2Cc2ccccc2)cc1` (configuration not stated) the TGI was > 100 µM.
`NC(=O)C1CCCNC1` (configuration not stated) was tested, and the TGI was > 100 µM.

Each molecule was assayed on OVCAR-5 ovarian (assay: DTP human tumour cell line panel, 48 h).
In the case of `C#CC1(O)C(COP(=O)(O)OC(COCCCCCCCCCCCCCCCCCC)COP(=O)(O)OCC2OC(n3cc(C)c(=O)[nH]c3=O)CC2N=[N+]=[N-])OC(n2ccc(N)nc2=O)C1O` (configuration not stated), the TGI is reported as > 92.7 µM.
For `CCOc1ccccc1/C=C(/C#N)C(N)=O`, the TGI was > 100 µM.
With `COc1cccc(-c2nnc3c(-c4ccccc4)nc4ccccc4n23)c1` the TGI was > 100 µM.
In the case of `c1ccc(COC2NCCN2Cc2ccccc2)cc1` (configuration not stated), the TGI is reported as > 100 µM.
For `NC(=O)C1CCCNC1` (configuration not stated), the TGI was > 100 µM.

These molecules were tested on OVCAR-8 ovarian (assay: DTP human tumour cell line panel, 48 h).
For `C#CC1(O)C(COP(=O)(O)OC(COCCCCCCCCCCCCCCCCCC)COP(=O)(O)OCC2OC(n3cc(C)c(=O)[nH]c3=O)CC2N=[N+]=[N-])OC(n2ccc(N)nc2=O)C1O` (configuration not stated), the TGI was > 42.2 µM.
In the case of `CCOc1ccccc1/C=C(/C#N)C(N)=O`, the TGI is reported as > 100 µM.
`COc1cccc(-c2nnc3c(-c4ccccc4)nc4ccccc4n23)c1` was tested, and the TGI was > 100 µM.
In the case of `c1ccc(COC2NCCN2Cc2ccccc2)cc1` (configuration not stated), the TGI is reported as > 100 µM.
In the case of `NC(=O)C1CCCNC1` (configuration not stated), the TGI is reported as > 100 µM.

The molecules below were run on PC-3 prostate (assay: DTP human tumour cell line panel, 48 h).
For `C#CC1(O)C(COP(=O)(O)OC(COCCCCCCCCCCCCCCCCCC)COP(=O)(O)OCC2OC(n3cc(C)c(=O)[nH]c3=O)CC2N=[N+]=[N-])OC(n2ccc(N)nc2=O)C1O` (configuration not stated), the TGI was > 81.6 µM.
`CCOc1ccccc1/C=C(/C#N)C(N)=O` was tested, and the TGI was > 100 µM.
`COc1cccc(-c2nnc3c(-c4ccccc4)nc4ccccc4n23)c1` was tested, and the TGI was > 100 µM.
`c1ccc(COC2NCCN2Cc2ccccc2)cc1` (configuration not stated) was tested, and the TGI was > 100 µM.
In the case of `NC(=O)C1CCCNC1` (configuration not stated), the TGI is reported as > 100 µM.

Each molecule was assayed on RPMI-8226 leukemia (assay: DTP human tumour cell line panel, 48 h).
Molecule `C#CC1(O)C(COP(=O)(O)OC(COCCCCCCCCCCCCCCCCCC)COP(=O)(O)OCC2OC(n3cc(C)c(=O)[nH]c3=O)CC2N=[N+]=[N-])OC(n2ccc(N)nc2=O)C1O` (configuration not stated) has a TGI of 1.05 µM.
In the case of `CCOc1ccccc1/C=C(/C#N)C(N)=O`, the TGI is reported as > 100 µM.
With `COc1cccc(-c2nnc3c(-c4ccccc4)nc4ccccc4n23)c1` the TGI was 26.4 µM.
For `c1ccc(COC2NCCN2Cc2ccccc2)cc1` (configuration not stated), the TGI was > 100 µM.
With `NC(=O)C1CCCNC1` (configuration not stated) the TGI was > 100 µM.

The molecules below were run on RXF 393 renal (assay: DTP human tumour cell line panel, 48 h).
`C#CC1(O)C(COP(=O)(O)OC(COCCCCCCCCCCCCCCCCCC)COP(=O)(O)OCC2OC(n3cc(C)c(=O)[nH]c3=O)CC2N=[N+]=[N-])OC(n2ccc(N)nc2=O)C1O` (configuration not stated) gave a TGI of 30.6 µM.
`CCOc1ccccc1/C=C(/C#N)C(N)=O` was tested, and the TGI was > 100 µM.
In the case of `COc1cccc(-c2nnc3c(-c4ccccc4)nc4ccccc4n23)c1`, the TGI is reported as 94.7 µM.
With `c1ccc(COC2NCCN2Cc2ccccc2)cc1` (configuration not stated) the TGI was > 100 µM.
In the case of `NC(=O)C1CCCNC1` (configuration not stated), the TGI is reported as > 100 µM.

What follows are molecules tested on SF-268 CNS (assay: DTP human tumour cell line panel, 48 h).
`C#CC1(O)C(COP(=O)(O)OC(COCCCCCCCCCCCCCCCCCC)COP(=O)(O)OCC2OC(n3cc(C)c(=O)[nH]c3=O)CC2N=[N+]=[N-])OC(n2ccc(N)nc2=O)C1O` (configuration not stated) was tested, and the TGI was 21.7 µM.
With `CCOc1ccccc1/C=C(/C#N)C(N)=O` the TGI was > 100 µM.
`COc1cccc(-c2nnc3c(-c4ccccc4)nc4ccccc4n23)c1` was tested, and the TGI was > 100 µM.
With `c1ccc(COC2NCCN2Cc2ccccc2)cc1` (configuration not stated) the TGI was > 100 µM.
For `NC(=O)C1CCCNC1` (configuration not stated), the TGI was > 100 µM.

The molecules below were run on SF-295 CNS (assay: DTP human tumour cell line panel, 48 h).
Work on `C#CC1(O)C(COP(=O)(O)OC(COCCCCCCCCCCCCCCCCCC)COP(=O)(O)OCC2OC(n3cc(C)c(=O)[nH]c3=O)CC2N=[N+]=[N-])OC(n2ccc(N)nc2=O)C1O` (configuration not stated) yielded a TGI of 10.7 µM.
With `CCOc1ccccc1/C=C(/C#N)C(N)=O` the TGI was > 100 µM.
In the case of `COc1cccc(-c2nnc3c(-c4ccccc4)nc4ccccc4n23)c1`, the TGI is reported as > 100 µM.
With `c1ccc(COC2NCCN2Cc2ccccc2)cc1` (configuration not stated) the TGI was > 100 µM.
With `NC(=O)C1CCCNC1` (configuration not stated) the TGI was > 100 µM.

What follows are molecules tested on SF-539 CNS (assay: DTP human tumour cell line panel, 48 h).
In the case of `C#CC1(O)C(COP(=O)(O)OC(COCCCCCCCCCCCCCCCCCC)COP(=O)(O)OCC2OC(n3cc(C)c(=O)[nH]c3=O)CC2N=[N+]=[N-])OC(n2ccc(N)nc2=O)C1O` (configuration not stated), the TGI is reported as 14.1 µM.
In the case of `CCOc1ccccc1/C=C(/C#N)C(N)=O`, the TGI is reported as > 100 µM.
For `COc1cccc(-c2nnc3c(-c4ccccc4)nc4ccccc4n23)c1`, the TGI was > 100 µM.
`c1ccc(COC2NCCN2Cc2ccccc2)cc1` (configuration not stated) was tested, and the TGI was > 100 µM.
In the case of `NC(=O)C1CCCNC1` (configuration not stated), the TGI is reported as > 100 µM.

These molecules were tested on SK-MEL-2 melanoma (assay: DTP human tumour cell line panel, 48 h).
`C#CC1(O)C(COP(=O)(O)OC(COCCCCCCCCCCCCCCCCCC)COP(=O)(O)OCC2OC(n3cc(C)c(=O)[nH]c3=O)CC2N=[N+]=[N-])OC(n2ccc(N)nc2=O)C1O` (configuration not stated) was tested, and the TGI was 2.44 µM.
